Experimental data taken from US20240216366A1, “PHARMACEUTICAL COMPOSITION COMPRISING A DIPHENYLPYRAZINE DERIVATIVE” (ACTELION PHARMACEUTICALS LTD, priority 2021, published 2024).
Counter-ions that a name gives are not always drawn.

Key:
[1] = Feasibility pK rat study of aqueous micro-suspensions (LAI feasibility); type: in vivo; details: IM, 50 mg/kg; for long-acting release profile: 125 mg/mL micro-suspension pH 5
Procedure: For this study, aqueous micro-suspensions of Selexipag, {4-[(5,6-diphenylpyrazin-2-yl)(propan-2-yl)amino]butoxy}acetic acid and calcium; {4-[(5,6-diphenylpyrazin-2-yl)(propan-2-yl)amino]butoxy}acetate were prepared. An overview of the design of the study can be found in Table 1.
Release profiles and mean AUC of the different formulations are depicted in FIG. 1.

[2] = Assay/purity of gamma-irradiated drug substance (UPLC); type: physicochemical
Procedure: To evaluate if gamma-irradiation could be used to produce sterile product, different irradiation grades were tested on calcium; {4-[(5,6-diphenylpyrazin-2-yl)(propan-2-yl)amino]butoxy}acetate. In this study, calcium; {4-[(5,6-diphenylpyrazin-2-yl)(propan-2-yl)amino]butoxy}acetate (“COMPOUND”) was irradiated with three different grades (i.e. 5, 25 and 40 kGy). Each irradiation grade was applied on two different COMPOUND vials. One of the two vials for each grade was flushed with nitrogen for 10 seconds. One reference vial containing non-irradiated COMPOUND was included in the assay/purity analysis. All samples were analyzed immediately after irradiation (Table 15) and re-analyzed after 3 months of storage at room temperature.
A second study was conducted on calcium: {4-[(5,6-diphenylpyrazin-2-yl)(propan-2-yl)amino]butoxy}acetate where three different irradiation grades were applied (i.e 5, 25 and 40 kGy).
Analytical Method used: The assay and the impurities of calcium salt of selexipag metabolite before (ref) and after gamma irradiation were analysed using reversed phase chromatography. Sample preparation was done by weighing 50 mg of sample in a 500 mL flask. Approximately 100 mL pH7 phosphate buffer:ACN (50:50) was added whereafter the flask was shaken mechanically for at least 30 minutes until complete dissolution. Dilute to volume with pH7 phosphate buffer:ACN (50:50). The resulting solution was diluted 5× by pipetting 5 mL into a 25 mL flask and diluting with the same dilution solvent. The reference solution is made following the same sample preparation, but using calcium salt of selexipag metabolite (“API”).
Analysis was performed using a Waters UPLC H-Class equipped with DAD detector, column manager and auto-sampler. Separation was done on a Acquity UPLC BEH C18 (2.1×150 mm, 1.7 μm) analytical column using a column temperature of 60° C. DAD detector was set on 230 nm. A 10 mM NH4Ac:ACN:MeOH (950:38:12) solution was used as mobile phase A. A 10 mM NH4Ac:ACN:MeOH (50:710:240) solution was used as mobile phase B. A linear gradient program of 26 minutes was applied starting in which the mobile phase B increases from 5% to 100% in 20 minutes. Hereafter the concentration of mobile phase B was brought back to 5% in 1 minute followed by an equilibration time of 5 minutes. The applied flow rate is 0.30 mL/min. An injection volume of 7 μL was used for the analysis. The assay value of the sample is calculated according following formula:
%=[API peak responsesample×concref×purityref×100%]/[peak responseref×concsample]
The concentration of an impurity is calculated according following formula:
%=[Impurity peak responsesample×concref×purityref×100%]/[peak responseref×concsample]

[3] = Assay/purity of drug product after autoclavation (steam sterilization); type: physicochemical
Procedure: In parallel with gamma-irradiation of the final drug product (formulated calcium; {4-[(5,6-diphenylpyrazin-2-yl)(propan-2-yl)amino]butoxy}acetate having a particle size Dv50 of 8 micrometer), autoclavation (steam sterilization) was evaluated as well.
Not only the effect upon chemical stability, but upon resuspendability was evaluated as well for the process of autoclavation (steam sterilization). The tested samples of experiment 142 were evaluated for resuspendability right after autoclavation (T0) and after 14 days of storage at 5° C. Time needed for resuspendability was acceptable at both timepoints.

[4] = Assay/purity of gamma-irradiated drug product (UPLC); type: physicochemical; details: gamma-irradiation 40 and 60 kGy
Source text: For this reason, both gamma-irradiation and autoclavation (steam sterilization) of the final drug product need to be investigated. To evaluate the chemical stability of the final drug product during gamma-irradiation, 2 different concepts with calcium; {4-[(5,6-diphenylpyrazin-2-yl)(propan-2-yl)amino]butoxy}acetate having a particle size Dv50 of 8 micrometer were subjected to an irradiation grade of 40 kGy and 60 kGy.
Analytical Method used: The assay and the impurities of the gamma irradiated and non-gamma irradiated (ref) calcium salt of selexipag metabolite suspension (formulation) were analysed using reversed phase chromatography. Sample preparation was done by weighing 0.5 mL suspension in a 500 mL flask. Approximately 200 mL pH7 phosphate buffer:ACN (50:50) was added whereafter the flask was shaken mechanically for at least 30 minutes until complete dissolution. Dilute to volume with pH7 phosphate buffer:ACN (50:50). The resulting solution was diluted 5× by pipetting 5 mL into a 25 mL flask and diluting with the same dilution solvent. […]
Analysis was performed using a Waters UPLC H-Class equipped with DAD detector, column manager and auto-sampler. […] The assay value of the sample is calculated according following formula: […]
The concentration of an impurity is calculated according following formula: […]

[5] = system: patients with pulmonary arterial hypertension; details: phase III clinical trial, versus placebo; cited from earlier work
[6] = 5 kGy, 3 months at room temperature
[7] = 5 kGy, 3 months at room temperature, flushed with N2
[8] = 25 kGy, 3 months at room temperature
[9] = 25 kGy, 3 months at room temperature, flushed with N2
[10] = 40 kGy, 3 months at room temperature
[11] = 40 kGy, 3 months at room temperature, flushed with N2
[12] = Reference (non-irradiated), 3 months at room temperature

CC(C)N(CCCCOCC(=O)O)c1cnc(-c2ccccc2)c(-c2ccccc2)n1 [ACT-333679, 2-(4-((5,6-diphenylpyrazin-2-yl)(isopropyl)amino)butoxy)acetic acid, reference compound]
long-acting release profile [1]: did not demonstrate a long-acting release profile

CC(C)N(CCCCOCC(=O)O)c1cnc(-c2ccccc2)c(-c2ccccc2)n1 [Ca-salt of ACT-333679, calcium; {4-[(5,6-diphenylpyrazin-2-yl)(propan-2-yl)amino]butoxy}acetate]
AUC increases up until ([1]; 125 mg/mL micro-suspension): ≤ 720 h | long-acting release profile up to ([1]; 125 mg/mL micro-suspension): up to 336 hours | plasma concentrations ([1]; 125 mg/mL micro-suspension, FIG. 1): significant lower plasma concentrations compared to both other groups | Assay, % COMPOUND [2, 6]: 94.0% | Impurity, % RRT 1.16* [2, 6]: <0.05% | Impurity, % RRT 1.32* [2, 6]: 0.06% | Impurity, % RRT 1.34* [2, 6]: <0.05% | Assay, % COMPOUND [2, 7]: 94.1% | Impurity, % RRT 1.16* [2, 7]: <0.05% | Impurity, % RRT 1.32* [2, 7]: 0.06% | Impurity, % RRT 1.34* [2, 7]: <0.05% | Assay, % COMPOUND ([2]; 5 kGy, T0): 95.3% | Impurity, % RRT 1.16* ([2]; 5 kGy, T0): 0.05% | Impurity, % RRT 1.32* ([2]; 5 kGy, T0): <0.05% | Impurity, % RRT 1.34* ([2]; 5 kGy, T0): 0.09% | Assay, % COMPOUND ([2]; 5 kGy, T0, flushed with N2): 94.6% | Impurity, % RRT 1.16* ([2]; 5 kGy, T0, flushed with N2): 0.05% | Impurity, % RRT 1.32* ([2]; 5 kGy, T0, flushed with N2): <0.05% | Impurity, % RRT 1.34* ([2]; 5 kGy, T0, flushed with N2): 0.06% | Assay, % COMPOUND [2, 8]: 94.2% | Impurity, % RRT 1.16* [2, 8]: 0.07% | Impurity, % RRT 1.32* [2, 8]: 0.12% | Impurity, % RRT 1.34* [2, 8]: 0.06% | Assay, % COMPOUND [2, 9]: 93.6% | Impurity, % RRT 1.16* [2, 9]: <0.05% | Impurity, % RRT 1.32* [2, 9]: 0.05% | Impurity, % RRT 1.34* [2, 9]: 0.08% | Assay, % COMPOUND ([2]; 25 kGy, T0): 95.1% | Impurity, % RRT 1.16* ([2]; 25 kGy, T0): 0.10% | Impurity, % RRT 1.32* ([2]; 25 kGy, T0): 0.11% | Impurity, % RRT 1.34* ([2]; 25 kGy, T0): 0.06% | Assay, % COMPOUND ([2]; 25 kGy, T0, flushed with N2): 95.6% | Impurity, % RRT 1.16* ([2]; 25 kGy, T0, flushed with N2): <0.05% | Impurity, % RRT 1.32* ([2]; 25 kGy, T0, flushed with N2): 0.13% | Impurity, % RRT 1.34* ([2]; 25 kGy, T0, flushed with N2): 0.09% | Assay, % COMPOUND [2, 10]: 94.3% | Impurity, % RRT 1.16* [2, 10]: 0.08% | Impurity, % RRT 1.32* [2, 10]: 0.15% | Impurity, % RRT 1.34* [2, 10]: 0.10% | Assay, % COMPOUND [2, 11]: 92.9% | Impurity, % RRT 1.16* [2, 11]: 0.08% | Impurity, % RRT 1.32* [2, 11]: 0.14% | Impurity, % RRT 1.34* [2, 11]: 0.10% | Assay, % COMPOUND ([2]; 40 kGy, T0): 94.3% | Impurity, % RRT 1.16* ([2]; 40 kGy, T0): 0.13% | Impurity, % RRT 1.32* ([2]; 40 kGy, T0): 0.14% | Impurity, % RRT 1.34* ([2]; 40 kGy, T0): 0.06% | Assay, % COMPOUND ([2]; 40 kGy, T0, flushed with N2): 94.5% | Impurity, % RRT 1.16* ([2]; 40 kGy, T0, flushed with N2): 0.12% | Impurity, % RRT 1.32* ([2]; 40 kGy, T0, flushed with N2): 0.15% | Impurity, % RRT 1.34* ([2]; 40 kGy, T0, flushed with N2): 0.07% | Assay, % COMPOUND [2, 12]: 94.4% | Impurity, % RRT 1.16* [2, 12]: <0.05% | Impurity, % RRT 1.32* [2, 12]: <0.05% | Impurity, % RRT 1.34* [2, 12]: <0.05% | Assay, % COMPOUND ([2]; Reference (non-irradiated), T0): 95.3% | Impurity, % RRT 1.16* ([2]; Reference (non-irradiated), T0): <0.05% | Impurity, % RRT 1.32* ([2]; Reference (non-irradiated), T0): <0.05% | Impurity, % RRT 1.34* ([2]; Reference (non-irradiated), T0): 0.09% | chemical stability ([2]; drug substance, gamma-irradiation 5, 25, 40 kGy): acceptable | Assay, % COMPOUND ([2]; second study, 5 kGy): 104.4% | Impurity, % RRT 1.15* ([2]; second study, 5 kGy): <0.05% | Impurity, % RRT 1.16* ([2]; second study, 5 kGy): <0.05% | Impurity, % RRT 1.32* ([2]; second study, 5 kGy): <0.05% | Assay, % COMPOUND ([2]; second study, 25 kGy): 104.3% | Impurity, % RRT 1.15* ([2]; second study, 25 kGy): 0.06% | Impurity, % RRT 1.16* ([2]; second study, 25 kGy): 0.09% | Impurity, % RRT 1.32* ([2]; second study, 25 kGy): 0.07% | Assay, % COMPOUND ([2]; second study, 40 kGy): 103.7% | Impurity, % RRT 1.15* ([2]; second study, 40 kGy): 0.06% | Impurity, % RRT 1.16* ([2]; second study, 40 kGy): 0.12% | Impurity, % RRT 1.32* ([2]; second study, 40 kGy): 0.10% | chemical stability in the drug product [3]: chemically stable | chemical stability in the drug product [4]: acceptable

CC(C)N(CCCCOCC(=O)NS(C)(=O)=O)c1cnc(-c2ccccc2)c(-c2ccccc2)n1 [Selexipag, 2-{4-[(5,6-diphenylpyrazin-2-yl)(propan-2-yl)amino]butoxy}-N-(methanesulfonyl)acetamide, reference compound]
long-acting release profile [1]: did not demonstrate a long-acting release profile | risk of the primary composite end point of death or a complication related to pulmonary arterial hypertension [5]: significantly lower
